Experiment [1] addresses T1, HCV NS3/4A protease complex, BMS strain (UniProt P27958, species not given/STRAIN_BMS).
T1 construct: other: NS3/4A BMS strain; activity range class; numeric values, unit not given; said of H77 and J4L6S; fused on or other part: A three-lysine solubilising tail at the C-terminus of NS4A; A His tag is implied by the pET21b vector and Ni-NTA purification; Both are printed for the H77 and J4L6S constructs and apply to BMS by inference
Kind of experiment: FRET peptide assay to monitor HCV NS3/4A proteolytic activity (BMS strain). The format is biochemical, Hepatitis C virus (genotype 1a). An excerpt: HCV NS3 protease complexes, derived from the BMS strain, H77 strain or J4L6S strain, were generated, as described below. These purified recombinant proteins were generated for use in a homogeneous assay (see below) to provide an indication of how effective compounds of the present disclosure would be in inhibiting HCV NS3 proteolytic activity.
Serum from an HCV-infected patient was obtained from Dr. T. Wright, San Francisco Hospital. An engineered full-length cDNA (compliment deoxyribonucleic acid) template of the HCV genome (BMS strain) was constructed from DNA fragments obtained by reverse transcription-PCR (RT-PCR) of serum RNA (ribonucleic acid) and using primers selected on the basis of homology between other genotype 1a strains. From the determination of the entire genome sequence, a genotype 1a was assigned to the HCV isolate according to the classification of Simmonds et al. (See P Simmonds, K A Rose, S Graham, S W Chan, F McOmish, B C Dow, E A Follett, P L Yap and H Marsden, J. Clin. Microbiol., 31(6), 1493-1503 (1993)). […] The infectious clones, H77 (1a genotype) and J4L6S (1b genotype) were obtained from R. Purcell (NIH) and the sequences are published in Genbank (AAB67036, see Yanagi, M., Purcell, R. H., Emerson, S. U. and Bukh, J. Proc. Natl. Acad. Sci. U.S.A. 94(16), 8738-8743 (1997); AF054247, see Yanagi, M., St Claire, M., Shapiro, M., Emerson, S. U., Purcell, R. H. and Bukh, J. Virology 244 (1), 161-172. (1998)).
NS3/4A protease complex-containing fractions were pooled and loaded on a desalting column Superdex-S200 pre-equilibrated with buffer D (25 mM HEPES, pH 7.5, 20% glycerol, 300 mM NaCl, 0.2% Triton X-100, 10 mM βME). Sample was loaded at a flow rate of 1 mL/min. NS3/4A protease complex-containing fractions were pooled and concentrated to approximately 0.5 mg/ml. The purity of the NS3/4A protease complexes, derived from the BMS, H77 and J4L6S strains, were judged to be greater than 90% by SDS-PAGE and mass spectrometry analyses. The enzyme was stored at −80° C., thawed on ice and diluted prior to use in assay buffer.
The purpose of this in vitro assay was to measure the inhibition of HCV NS3 protease complexes, derived from the BMS strain, H77 strain or J4L6S strain, as described above, by compounds of the present disclosure. This assay provides an indication of how effective compounds of the present disclosure would be in inhibiting HCV NS3 proteolytic activity.
In order to monitor HCV NS3/4A protease activity, an NS3/4A peptide substrate was used. The substrate was RET S1 (Resonance Energy Transfer Depsipeptide Substrate; AnaSpec, Inc. cat #22991) (FRET peptide), described by Taliani et al. in Anal. Biochem. 240(2):60-67 (1996). The sequence of this peptide is loosely based on the NS4A/NS4B natural cleavage site for the HCV NS3 protease except there is an ester linkage rather than an amide bond at the cleavage site. The peptide also contains a fluorescence donor, EDANS, near one end of the peptide and an acceptor, DABCYL, near the other end. The fluorescence of the peptide is quenched by […] resonance energy transfer (RET) between the donor and the acceptor, but as the NS3 protease cleaves the peptide the products are released from RET quenching and the fluorescence of the donor becomes apparent.
The peptide substrate was incubated with one of the three recombinant NS3/4A protease complexes, in the absence or presence of a compound of the present disclosure. The inhibitory effects of a compound were determined by monitoring the formation of fluorescent reaction product in real time using a Cytofluor Series 4000.
Assay buffer: 50 mM HEPES, pH 7.5; 0.15 M NaCl; 0.1% Triton; 15% Glycerol; 10 mM βME. Substrate: 2 μM final concentration (from a 2 mM stock solution in DMSO stored at −20° C.). HCV NS3/4A protease type 1a (1b), 2-3 nM final concentration (from a 5 μM stock solution in 25 mM HEPES, pH 7.5, 20% glycerol, 300 mM NaCl, 0.2% Triton-X100, 10 mM βME). […]

For experiment [2], the system named is HCV replicon (strain 1b) in HUH-7 cells. As to the kind of experiment: HCV replicon FRET assay. The format is cell-based, Hepatitis C virus. The following applies: activity range class. An excerpt: An HCV replicon whole cell system was established as described by Lohmann V, Korner F, Koch J, Herian U, Theilmann L, Bartenschlager R., Science 285(5424): 110-3 (1999). This system enabled us to evaluate the effects of our HCV Protease compounds on HCV RNA replication. Briefly, using the HCV strain 1b sequence described in the Lohmann paper (Assession number: AJ238799), an HCV cDNA was synthesized by Operon Technologies, Inc. (Alameda, Calif.), and the full-length replicon was then assembled in plasmid pGem9zf(+) (Promega, Madison, Wis.) using standard molecular biology techniques. The replicon consists of (i) the HCV 5′ UTR fused to the first 12 amino acids of the capsid protein, (ii) the neomycin phosphotransferase gene (neo), (iii) the IRES from encephalomyocarditis virus (EMCV), and (iv) HCV NS3 to NS5B genes and the HCV 3′ UTR. Plasmid DNAs were linearized with ScaI and RNA transcripts were synthesized in vitro using the T7 MegaScript transcription kit (Ambion, Austin, Tex.) according to manufacturer's directions. In vitro transcripts of the cDNA were transfected into the human hepatoma cell line, HUH-7. […] Resulting cell lines were characterized for positive and negative strand RNA production and protein production over time.
The HCV replicon FRET assay was developed to monitor the inhibitory effects of compounds described in the disclosure on HCV viral replication. HUH-7 cells, constitutively expressing the HCV replicon, were grown in Dulbecco's Modified Eagle Media (DMEM) (Gibco-BRL) containing 10% Fetal calf serum (FCS) (Sigma) and 1 mg/ml G418 (Gibco-BRL). Cells were seeded the night before (1.5×10^4 cells/well) in 96-well tissue-culture sterile plates. Compound and no compound controls were prepared in DMEM containing 4% FCS, 1:100 Penicillin/Streptomysin (Gibco-BRL), 1:100 L-glutamine and 5% DMSO in the dilution plate (0.5% DMSO final concentration in the assay). Compound/DMSO mixes were added to the cells and incubated for 4 days at 37° C. After 4 days, cells were first assessed for cytotoxicity using alamar Blue (Trek Diagnotstic Systems) for a CC50 reading. The toxicity of compound (CC50) was determined by adding 1/10th volume of alamarBlue to the media incubating the cells. After 4 hours, the fluorescence signal from each well was read, with an excitation wavelength at 530 nm and an emission wavelength of 580 nm, using the Cytofluor Series 4000 (Perspective Biosystems). Plates were then rinsed thoroughly with Phosphate-Buffered Saline (PBS) (3 times 150 μl).
(In antiviral work, replicon cells carry a viral genome segment that copies itself.)

Where [3] appears, read: read-out: HCV Protease (IC50); NS3/4A BMS strain; activity range class.
Setting [4] is: Hepatitis C virus, Huh-7, read-out: HCV Pro Replicon (EC50), HCV replicon cell assay.

Like-named read-outs stand apart in the source and are kept apart here.

T1 sequence (P27958 1027-1657, change not shown, one chain of several): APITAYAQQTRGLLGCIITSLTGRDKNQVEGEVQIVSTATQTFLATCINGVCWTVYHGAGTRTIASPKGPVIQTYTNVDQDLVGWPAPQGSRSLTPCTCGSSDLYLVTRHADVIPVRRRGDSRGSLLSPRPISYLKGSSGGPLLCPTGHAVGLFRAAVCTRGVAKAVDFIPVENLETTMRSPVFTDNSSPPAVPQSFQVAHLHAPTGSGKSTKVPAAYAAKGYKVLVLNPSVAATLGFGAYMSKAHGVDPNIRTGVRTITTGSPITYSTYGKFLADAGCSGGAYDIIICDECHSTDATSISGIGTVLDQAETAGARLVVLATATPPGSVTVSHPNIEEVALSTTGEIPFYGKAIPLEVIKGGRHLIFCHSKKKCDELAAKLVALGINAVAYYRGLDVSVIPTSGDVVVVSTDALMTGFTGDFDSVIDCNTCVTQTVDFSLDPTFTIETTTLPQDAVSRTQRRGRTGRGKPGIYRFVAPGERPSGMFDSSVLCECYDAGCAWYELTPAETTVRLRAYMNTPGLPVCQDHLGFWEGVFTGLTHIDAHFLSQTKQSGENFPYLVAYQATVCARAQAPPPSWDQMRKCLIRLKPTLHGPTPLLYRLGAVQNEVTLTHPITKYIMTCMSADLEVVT

Consider `C=C[C@@H]1C[C@]1(NC(=O)[C@@H]1C[C@@H](Oc2ncc(OC)c3ccc(Cl)cc23)CN1C(=O)[C@H](Nc1cccc(C(=O)OC(C)(C)C)c1)C(C)(C)C)C(=O)NS(=O)(=O)C1CC1` [210 second isomer, N-(3-(tert-butoxycarbonyl)phenyl)-3-methyl-D-valyl-(4R)-4-((7-chloro-4-methoxy-1-isoquinolinyl)oxy)-N-((1R,2S)-1-((cyclopropylsulfonyl)carbamoyl)-2-vinylcyclopropyl)-L-prolinamide], for which the IC50 in experiment [1] (setting [3]) was 20 to 200 nM. Moreover, in experiment [2] (setting [4]), the EC50 is 100 to 1000 nM.

As to `C=CCCCCCC(Nc1ccc(OC)nc1)C(=O)N1C[C@H](Oc2ncc(OC)c3ccc(Cl)cc23)C[C@H]1C(=O)N[C@]1(C(=O)NS(=O)(=O)C2CC2)C[C@H]1C=C` (some centres unmarked) [Compound 410], in experiment [1] (setting [3]), the IC50 is more than 200 nM. In addition, the EC50 in experiment [2] (read-out: HCV Pro Replicon (EC50), HCV replicon cell assay) was 3 to 100 nM. Turning to `C=C[C@@H]1C[C@]1(NC(=O)[C@@H]1C[C@@H](Oc2ncc(OC)c3ccc(Cl)cc23)CN1C(=O)[C@@H](Nc1cccc(C(=O)OC)c1)C(C)(C)C)C(=O)NS(=O)(=O)C1CC1` [232 first isomer, N-(3-(methoxycarbonyl)phenyl)-3-methyl-L-valyl-(4R)-4-((7-chloro-4-methoxy-1-isoquinolinyl)oxy)-N-((1R,2S)-1-((cyclopropylsulfonyl)carbamoyl)-2-vinylcyclopropyl)-L-prolinamide], the half-inhibitory concentration (IC50) in experiment [1] (setting [3]) lay in the range of 0.6 to 20 nM. In addition, the EC50 in experiment [2] (setting [4]) fell in the range of 3 to 100 nM. `C=C[C@@H]1C[C@]1(NC(=O)[C@@H]1C[C@@H](Oc2ncc(OC)c3ccc(Cl)cc23)CN1C(=O)C(Nc1ccc(OC(F)F)nc1)C(C)(C)C)C(=O)NS(=O)(=O)C1CC1` (single isomer, unassigned) [409 - first isomer]: the IC50 in experiment [1] (setting [3]) fell in the range of 20 to 200 nM.

`C=C[C@@H]1C[C@]1(NC(=O)[C@@H]1C[C@@H](Oc2ncc(OC)c3ccc(Cl)cc23)CN1C(=O)[C@H](Nc1cccc(F)c1F)C(C)(C)C)C(=O)NS(=O)(=O)C1CC1` [208 second isomer, N-(2,3-difluorophenyl)-3-methyl-D-valyl-(4R)-4-((7-chloro-4-methoxy-1-isoquinolinyl)oxy)-N-((1R,2S)-1-((cyclopropylsulfonyl)carbamoyl)-2-vinylcyclopropyl)-L-prolinamide]: the 50% inhibitory concentration (IC50) in experiment [1] (setting [3]) is more than 200 nM. Consider `C=C[C@@H]1C[C@]1(NC(=O)[C@@H]1C[C@@H](Oc2ncc(OC)c3ccc(Cl)cc23)CN1C(=O)[C@H](Nc1ccc(S(=O)(=O)NC(C)(C)C)cc1)C(C)(C)C)C(=O)NS(=O)(=O)C1CC1` [214 second isomer, N-(4-(tert-butylsulfamoyl)phenyl)-3-methyl-D-valyl-(4R)-4-((7-chloro-4-methoxy-1-isoquinolinyl)oxy)-N-((1R,2S)-1-((cyclopropylsulfonyl)carbamoyl)-2-vinylcyclopropyl)-L-prolinamide], for which, in experiment [1] (setting [3]), the half-maximal inhibitory concentration (IC50) is more than 200 nM.

Consider `C=C[C@@H]1C[C@]1(NC(=O)[C@@H]1C[C@@H](Oc2ncc(OC)c3ccc(Cl)cc23)CN1C(=O)C(Nc1ccc(OC(F)F)nc1)C(C)(C)C)C(=O)NS(=O)(=O)C1CC1` (single isomer, unassigned) [409 - second isomer], for which the IC50 in experiment [1] (setting [3]) was more than 200 nM. As for `C=C[C@@H]1C[C@]1(NC(=O)[C@@H]1C[C@@H](Oc2ncc(OC)c3ccc(Cl)cc23)CN1C(=O)[C@H](Nc1ccc(C(N)=O)cc1)C(C)(C)C)C(=O)NS(=O)(=O)C1CC1` [226 second isomer, N-(4-carbamoylphenyl)-3-methyl-D-valyl-(4R)-4-((7-chloro-4-methoxy-1-isoquinolinyl)oxy)-N-((1R,2S)-1-((cyclopropylsulfonyl)carbamoyl)-2-vinylcyclopropyl)-L-prolinamide], in experiment [1] (setting [3]), the IC50 is more than 200 nM. `C=C[C@@H]1C[C@]1(NC(=O)[C@@H]1C[C@@H](Oc2ncc(OC)c3ccc(Cl)cc23)CN1C(=O)[C@H](Nc1cccc(C(N)=O)c1)C(C)(C)C)C(=O)NS(=O)(=O)C1CC1` [217 second isomer, N-(3-carbamoylphenyl)-3-methyl-D-valyl-(4R)-4-((7-chloro-4-methoxy-1-isoquinolinyl)oxy)-N-((1R,2S)-1-((cyclopropylsulfonyl)carbamoyl)-2-vinylcyclopropyl)-L-prolinamide]: the IC50 in experiment [1] (setting [3]) is more than 200 nM. The same measure, in the same setting: under `C=C[C@@H]1C[C@]1(NC(=O)[C@@H]1C[C@@H](Oc2nc3c(c4cc(OC)ccc24)OCCN3C)CN1C(=O)[C@@H](Nc1ccc(F)c(F)c1)C(C)(C)C)C(=O)NS(=O)(=O)C1CC1` [235 first isomer, N-(3,4-difluorophenyl)-3-methyl-L-valyl-(4R)—N-((1R,2S)-1-((cyclopropylsulfonyl)carbamoyl)-2-vinylcyclopropyl)-4-((9-methoxy-4-methyl-3,4-dihydro-2H-[1,4]oxazino[3,2-c]isoquinolin-6-yl)oxy)-L-prolinamide] stands more than 200 nM. Take `C=C[C@@H]1C[C@]1(NC(=O)[C@@H]1C[C@@H](Oc2ncc(OC)c3ccc(Cl)cc23)CN1C(=O)[C@H](Nc1cccc(C(=O)NC(C)(C)c2ccccc2)c1)C(C)(C)C)C(=O)NS(=O)(=O)C1CC1` (single isomer, unassigned; isomer 3) [216 second isomer]: in experiment [1] (NS3/4A BMS strain; activity range class; read-out: HCV Protease (IC50)), the IC50 was more than 200 nM.

As usually defined, the IC50 is the concentration that gives 50% inhibition. A word on the EC50: it is the concentration that produces a half-maximal response.

The values are drawn from patent publication US7772180B2, “Hepatitis C virus inhibitors” (Bristol-Myers Squibb Company, priority 2006, dated 2010).
